Measured values reported in EP1406920B1, “NOVEL CHROMOGENIC SUBSTANCES AND USE THEREOF FOR THE DETERMINATION OF CARBOXYPEPTIDASE ACTIVITIES” (Diagnostica Stago, priority 2001, dated 2003).

Experiments:
Assay type in all cases: biochemical
[1] = target: T1, TAFI purifié (Homo sapiens, UniProt Q96IY4); assay: Colorimetric TAFI activity assay on purified TAFI with different substrates (thrombin/thrombomodulin activation, carboxypeptidase A revelation); conditions: substrate 5 mM; 6,5 µg/ml TAFI purifié in hépès buffer; read at 320-350 nm
T1 sequence (Q96IY4 115-423): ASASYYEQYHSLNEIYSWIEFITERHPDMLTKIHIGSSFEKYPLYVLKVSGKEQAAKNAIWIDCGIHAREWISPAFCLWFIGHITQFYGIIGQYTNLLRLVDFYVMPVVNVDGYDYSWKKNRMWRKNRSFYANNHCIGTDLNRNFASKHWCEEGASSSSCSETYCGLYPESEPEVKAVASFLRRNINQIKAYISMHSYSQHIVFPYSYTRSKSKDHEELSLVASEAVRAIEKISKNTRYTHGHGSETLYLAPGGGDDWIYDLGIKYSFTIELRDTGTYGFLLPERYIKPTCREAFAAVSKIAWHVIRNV

[2] = system: carboxypeptidase B pancréatique porcine; assay: Decoloration of single-amino-acid substrate AAFR by pancreatic carboxypeptidase B; conditions: CPB porcine 5,2 mol/l in hépès buffer; AAFR 5 mM (0,25 mM); 382 nm
Excerpt: (§1) L'exemple ci-après vise à démontrer la nécessité d'utiliser la méthode et les composés de formule (I) de l'invention pour doser spécifiquement l'activité des CPN ou U, en particulier le TAFI, par rapport à d'autres carboxypeptidases basiques. 1. Le dosage est dans ce cas réalisé avec un substrat de la famille de composés décrites par Mock dans (14). Ce substrat est constitué d'un seul acide aminé porteur du radical chromophore anizylazoformyl (portion CH3OC6H4-N = N-CO-). L'acide aminé choisi est l'arginine, un acide aminé basique normalement hydrolysé par les carboxypeptidases B (1). Ce substrat est dénommé ci-après AAFR (AnizylAzoFormyArginine) ou MxAFR (4-MethoxyphenylAzoformylarginine). Ce substrat (0,25 mM) est mis en présence soit d'un échantillon de TAFI plasmatique, soit d'une solution de carboxypeptidase B pancréatique porcine (Sigma - Réf. C9584) à 5,2 mol/l. La diminution de coloration de chacun des deux échantillons est suivie au spectrophotomètre. Chacun des échantillons est traité selon le protocole suivant : • a) échantillon de départ : • TAFI plasmatique (présent dans un pool normal de plasmas - dilué au 1/20) ou • Carboxypeptidase B pancréatique porcine 5,2 mol/l (dans tampon hépès) • b) activation avec complexe thrombine-thrombomoduline-CaCl2 (voir exemple 2) pour l'échantillon de TAFI plasmatique. • c) addition de AAFR à 5 mM. • d) lecture DO à 382 nm.

[3] = target: T2, TAFI plasmatique (Homo sapiens, UniProt Q96IY4); assay: Decoloration of single-amino-acid substrate AAFR by activated plasma TAFI
T2 construct: from tissue; host or cells: normal plasma pool, diluted 1/20
T2 sequence (Q96IY4 115-423): T1 sequence (Q96IY4 115-423)
Excerpt: as §1

[4] = target: T1, TAFI purifié; assay: Specificity test on purified TAFI solution: MxAFR versus MxPAFFK; conditions: for DO de départ / DO finale / Delta DO: TAFI purifié 18 µg/ml, activated, MxAFR 27 mM without CPA, MxPAFFK with CPA added, 382 nm; for hydrolyse par le TAFI activé: conclusion in words, purified TAFI 18 µg/ml
Excerpt: 2. La méthode de l'invention est ensuite appliquée sur une solution de TAFI purifiée, soit avec un substrat de formule (I) (MxPAFFK), soit avec le MxAFR pour vérifier que le TAFIa hydrolyse néanmoins un composé de formule (I). L'activation de la coagulation est déclenchée par le complexe thrombine-thrombomoduline-CaCl2 (voir protocole exemple 2). La diminution de coloration de chacun des deux échantillons est suivie au spectrophotomètre. • a) échantillons de départ : solution de TAFI purifié à18 µg/ml (dilué dans tampon hépès). • b) activation de la coagulation. • c) addition de MxAFR 27 mM ou MxPAFFK (témoin) concentration du MxAFFK. • d) addition de CPA dans l'échantillon contenant le MxPAFFK. • e) lecture DO à 382 nm.

[5] = target: T1, TAFI purifié; assay: Calibration range, thrombin/thrombomodulin method, TAFI-deficient plasma spiked with purified TAFI; conditions: substrate 5 mM
Experimental: L'échantillon de plasma testé est divisé en deux aliquotes, l'un étant additionné de PIC (Calbiochem - Réf. 217359), l'autre de tampon hépès. Les deux aliquotes sont ensuite traités de manière identique selon le principe suivant :
• 150 µl de plasma dilué au 1/20 en tampon hépès (ou TAFI purifié à 13 µg/ml en tampon hépès. • 10 µl PIC ou H2O • 5 minutes à température ambiante • 150 µl tampon activateur de la coagulation • 10 minutes à température ambiante • 100 µl PPACK + 100 µl MxPAFFR (substrat) (5 mM)
• 30 minutes à température ambiante • 100 µl HCl 1M + 100 µl NaOH 1M
• Dilution au 1/3 en tampon hépès • Lecture de la DO à 382 nm • 25 µl Carboxypeptidase A • Lecture de la DO à 382 nm sur 1 minute
La figure 3 ci-après représente une courbe d'étalonnage établie à partir d'un plasma déficient en TAFI surchargé avec du TAFI purifié pour obtenir une gamme de concentration en TAFI allant de 0 à 26 µg/ml. Le composé de formule I utilisé est le MxPAAFR à une concentration de 5 mM. Les Δ DO mesurés selon la méthode de l'invention sont reportés dans le tableau III suivant : TABLEAU III : […]

[6] = TAFIa du plasma (normal plasma pool diluted 1/20, thrombine-thrombomoduline-CaCl2 activation), AAFR 5 mM (0,25 mM), 382 nm

DO de départ [1]	DO finale [1]	Delta DO [1]	DO de départ [4]	DO finale [4]	Delta DO [4]	hydrolyse par le TAFI activé [4]	Compound	other results
0.318	0.089	0.229	–	–	–	–	Cc1cccc(N=NC(=O)N[C@@H](Cc2ccccc2)C(=O)N[C@@H](CCCNC(=N)N)C(=O)O)c1C [2,3 DMPAFFR, 2,3-dimethylphenylazoformylphenylalanylarginine]	–
1.004	0.087	0.917	–	–	–	–	Cc1ccc(N=NC(=O)N[C@@H](Cc2ccccc2)C(=O)N[C@@H](CCCNC(=N)N)C(=O)O)c(C)c1 [2,4 DMPAFFR, 2,4-dimethylphenylazoformylphenylalanylarginine]	–
0.973	0.131	0.842	–	–	–	–	Cc1ccc(C)c(N=NC(=O)N[C@@H](Cc2ccccc2)C(=O)N[C@@H](CCCNC(=N)N)C(=O)O)c1 [2,5 DMPAFFR, 2,5-dimethylphenylazoformylphenylalanylarginine]	–
–	–	–	1.356	1.300	0.056	n'hydrolyse pas	COc1ccc(N=NC(=O)N[C@@H](CCCNC(=N)N)C(=O)O)cc1 [AAFR, 4-MethoxyphenylAzoformylarginine]	Delta DO [2]: 0.608; DO de départ [3, 6]: 1.730; DO finale [3, 6]: 1.681; Delta DO [3, 6]: 0.049; hydrolyse par le TAFI activé ([3]; conclusion in words, plasma TAFIa): n'hydrolyse pas
–	–	–	–	–	–	–	COc1ccc(N=NC(=O)N[C@@H](Cc2ccccc2)C(=O)N[C@@H](CCCNC(=N)N)C(=O)O)cc1 [MxPAAFR, 4-methoxyphenylazoformylphenylalanylarginine]	Δ DO mesuré ([5]; concentration en TAFIa 0 µg/ml): 0.168; Δ DO mesuré ([5]; concentration en TAFIa 1.63 µg/ml): 0.217; Δ DO mesuré ([5]; concentration en TAFIa 3.25 µg/ml): 0.273; Δ DO mesuré ([5]; concentration en TAFIa 6.5 µg/ml): 0.399; Δ DO mesuré ([5]; concentration en TAFIa 13 µg/ml): 0.624; Δ DO mesuré ([5]; concentration en TAFIa 26 µg/ml): 0.995
0.973	0.131	0.842	1.397	0.849	0.548	actif	COc1ccc(N=NC(=O)N[C@@H](Cc2ccccc2)C(=O)N[C@@H](CCCCN)C(=O)O)cc1 [MxPAFFK, 4-methoxyphenylazoformylphenylalanyllysine]	–
